The source of these data is patent US20230043863A1, “HETEROAROMATIC DERIVATIVES FOR USE AS REGULATOR, PREPARATION METHOD THEREFOR AND USE THEREOF” (JIANGSU HANSOH PHARMACEUTICAL GROUP CO., LTD., priority 2018, published 2023).

Series [1] in a line: Balb/C mouse pharmacokinetics (plasma, colon, ileum). The series is classed as in vivo. The conditions noted are these: male, po, Balb/C mice, p.o. 5 mg/kg; for Cmax: read-out: Blood concentration Cmax; for AUC(0-t): read-out: Curve area AUC0-t; for AUC(0-inf): read-out: Curve area AUC0-∞; for half-life: read-out: Half life period t1/2 (converted); for MRT: read-out: Mean detention time MRT; for Tmax: read-out: Time to peak tmax. Summed up:
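Male Balb/C mice (12 per group), fasted overnight, given 5 mg/kg p.o.; plasma, ileum and colon sampled at 0–7 h. Drug levels by LC/MS/MS, […]; parameters include colon/ileum and colon/plasma concentration ratios.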

The target of the next series is JAK2 (Homo sapiens, UniProt O60674). Kind of series: JAK kinase activity inhibition, TR-FRET (JAK2). The class given is biochemical. The conditions noted are these: TR-FRET kinase assay. In short, it runs like this: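 TR-FRET read (≈620 and 665 nm) after EDTA quench and 1-24 h antibody detection at RT. Kinase 0.1-20 nM, peptide substrate + ATP, 0.5-5 h RT reaction in HEPES 50-250 mM, MgCl2 5-20 mM. IC50 from 4-parameter fit vs DMSO and no-kinase controls.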

Like-named read-outs stand apart in the source and are kept apart here.

JAK2, sequence (O60674 whole entry): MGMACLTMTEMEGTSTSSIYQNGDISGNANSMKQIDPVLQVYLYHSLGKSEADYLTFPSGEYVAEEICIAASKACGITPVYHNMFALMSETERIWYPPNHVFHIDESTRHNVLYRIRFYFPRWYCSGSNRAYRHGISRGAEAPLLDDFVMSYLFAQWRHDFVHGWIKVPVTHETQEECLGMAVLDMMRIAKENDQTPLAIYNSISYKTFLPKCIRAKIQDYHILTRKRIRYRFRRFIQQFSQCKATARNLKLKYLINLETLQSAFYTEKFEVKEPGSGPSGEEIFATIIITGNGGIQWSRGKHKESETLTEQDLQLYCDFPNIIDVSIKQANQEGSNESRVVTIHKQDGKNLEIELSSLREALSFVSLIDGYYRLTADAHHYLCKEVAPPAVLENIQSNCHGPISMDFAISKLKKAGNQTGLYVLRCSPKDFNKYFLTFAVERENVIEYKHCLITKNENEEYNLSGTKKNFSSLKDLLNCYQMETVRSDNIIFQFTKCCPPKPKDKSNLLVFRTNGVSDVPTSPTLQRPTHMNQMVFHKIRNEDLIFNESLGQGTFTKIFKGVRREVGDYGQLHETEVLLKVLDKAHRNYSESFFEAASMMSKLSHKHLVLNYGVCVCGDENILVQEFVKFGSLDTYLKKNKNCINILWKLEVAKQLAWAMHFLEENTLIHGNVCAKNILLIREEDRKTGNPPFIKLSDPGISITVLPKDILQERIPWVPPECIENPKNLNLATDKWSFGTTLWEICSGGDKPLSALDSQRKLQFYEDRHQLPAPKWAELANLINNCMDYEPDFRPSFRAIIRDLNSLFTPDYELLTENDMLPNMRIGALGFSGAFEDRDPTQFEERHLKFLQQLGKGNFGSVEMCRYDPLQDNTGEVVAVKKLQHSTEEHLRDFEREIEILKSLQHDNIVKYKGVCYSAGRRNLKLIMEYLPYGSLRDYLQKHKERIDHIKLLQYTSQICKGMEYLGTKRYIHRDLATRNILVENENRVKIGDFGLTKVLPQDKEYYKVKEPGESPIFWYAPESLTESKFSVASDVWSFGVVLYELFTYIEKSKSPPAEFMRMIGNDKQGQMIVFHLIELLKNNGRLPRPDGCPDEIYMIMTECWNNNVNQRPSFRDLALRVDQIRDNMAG

Take `Cc1cnc(Nc2cc3ncccc3c(N[C@@H]3C[C@H]4CC[C@@H](C3)N4CCC#N)n2)s1` [Embodiment 1, 3-((3-exo)-3-((7-((5-methylthioazol-2-yl)amino)-1,6-diazanaphthalen-5-yl)amino)-8-azabicyclo[3.2.1]oct-8-yl)propionitrile]: in series [1] (plasma, blood), the Cmax was found to be 25.6 ng/mL, the AUC(0-t) turned out to be 58.1 ng·h/mL, the AUC(0-inf) came out at 61.5 ng·h/mL and the half-life was 1.75 h. Also, in series [1] (plasma, blood), the MRT is 2.03 h and the Tmax came out at 0.5 h. In series [1] (colon), the Cmax came to 2720 ng/mL, the AUC(0-t) was 8320 ng·h/mL, the MRT was 3.68 h and the Tmax was 3 h. In addition, in series [1] (ileum), the Cmax worked out at 27100 ng/mL, the AUC(0-t) was 90500 ng·h/mL, the AUC(0-inf) worked out at 93700 ng·h/mL and the half-life was 1.08 h. Besides, in series [1] (ileum), the MRT was 2.84 h and the Tmax turned out to be 3 h. For the same compound, the IC50 on JAK2 came to 690 pM.
In the case of `Cc1cc(Nc2nc(N[C@@H]3C[C@H]4CC[C@@H](C3)N4CCC#N)nc3ccsc23)n[nH]1` [Embodiment 60, 3-((3-exo)-3-((4-((5-methyl-1H-pyrazol-3-yl)amino)thieno[3,2-d]pyrimidin-2-yl)amino)-8-azabicyclo[3.2.1]oct-8-yl)propionitrile], in series [1] (plasma, blood), the Cmax amounted to 10.3 ng/mL, the AUC(0-t) came to 31.1 ng·h/mL, the AUC(0-inf) worked out at 32.9 ng·h/mL and the half-life is 1.41 h. In addition, in series [1] (plasma, blood), the MRT amounted to 2.58 h and the Tmax came to 2 h. In series [1] (colon), the Cmax is 2310 ng/mL, the AUC(0-t) worked out at 9130 ng·h/mL, the MRT worked out at 3.83 h and the Tmax stood at 5 h. Moreover, in series [1] (ileum), the Cmax was determined as 26100 ng/mL, the AUC(0-t) was found to be 98000 ng·h/mL, the AUC(0-inf) is 103000 ng·h/mL and the half-life is 1.26 h. Moreover, in series [1] (ileum), the mean residence time (MRT) is 2.49 h and the Tmax is 1 h.
`COc1ccc2c(Nc3cc(C)[nH]n3)nc(N[C@@H]3C[C@H]4CC[C@@H](C3)N4CCC#N)nc2c1` [Embodiment 169, 3-((3-exo)-3-((7-methoxyl-4-((5-methyl-1H-pyrazol-3-yl)amino)quinazolin-2-yl)amino)-8-azabicyclo[3.2.1]oct-8-yl)propionitrile]: in series [1] (plasma, blood), the Cmax was 2.21 ng/mL, the AUC(0-t) stood at 3.04 ng·h/mL, the MRT stood at 1.08 h and the Tmax is 0.5 h. Moreover, in series [1] (colon), the Cmax turned out to be 9010 ng/mL, the AUC(0-t) stood at 23200 ng·h/mL, the MRT came to 2.29 h and the Tmax amounted to 5 h. For the same compound, in series [1] (ileum), the Cmax amounted to 23300 ng/mL, the AUC(0-t) was 68900 ng·h/mL, the MRT came out at 4.64 h and the Tmax stood at 1 h. Besides, the IC50 on JAK2 is 1070 pM.
Turning to `Cc1cc(Nc2nc(N[C@@H]3C[C@H]4CC[C@@H](C3)N4CCC#N)nc3cc(Br)ccc23)n[nH]1` [Embodiment 170, 3-((3-exo)-3-((7-bromine-4-((5-methyl-1H-pyrazol-3-yl)amino)quinazolin-2-yl)amino)-8-azabicyclo[3.2.1]oct-8-yl)propionitrile], in series [1] (plasma, blood), the Cmax worked out at 16 ng/mL, the AUC(0-t) came to 36.7 ng·h/mL, the MRT is 4.13 h and the Tmax amounted to 7 h. Further, in series [1] (colon), the Cmax was 4320 ng/mL, the AUC(0-t) amounted to 13000 ng·h/mL, the MRT came to 3.36 h and the time to peak (Tmax) came to 3 h. For the same compound, in series [1] (ileum), the Cmax is 49900 ng/mL, the AUC(0-t) was 118000 ng·h/mL, the AUC(0-inf) turned out to be 172000 ng·h/mL and the half-life was 5.48 h. In addition, in series [1] (ileum), the MRT turned out to be 2.19 h and the Tmax turned out to be 1 h.
Regarding `Cc1cc(Nc2nc(N[C@@H]3C[C@H]4CC[C@@H](C3)N4CCC#N)nc3cc(Cl)ccc23)n[nH]1` [Embodiment 171, 3-((3-exo)-3-((7-chloro-4-((5-methyl-1H-pyrazol-3-yl)amino)quinazolin-2-yl)amino)-8-azabicyclo[3.2.1]oct-8-yl)propionitrile], in series [1] (plasma, blood), the Cmax came to 8.91 ng/mL, the AUC(0-t) was found to be 23.4 ng·h/mL, the AUC(0-inf) was determined as 26.7 ng·h/mL and the half-life is 1.93 h. Further, in series [1] (plasma, blood), the MRT worked out at 3.05 h and the Tmax is 2 h. Further, in series [1] (colon), the Cmax worked out at 438 ng/mL, the AUC(0-t) amounted to 2010 ng·h/mL, the MRT was 4.24 h and the Tmax worked out at 3 h. Besides, in series [1] (ileum), the Cmax came to 17000 ng/mL, the AUC(0-t) was determined as 79800 ng·h/mL, the mean residence time MRT was 3.35 h and the Tmax amounted to 3 h. For the same compound, the concentration for half-maximal inhibition (IC50) on JAK2 is 670 pM.
Consider `Cc1cc(Nc2nc(N[C@@H]3C[C@H]4CC[C@@H](C3)N4S(=O)(=O)N3CC(C#N)C3)nc3ccccc23)n[nH]1` [Embodiment 213, 1-(((3-exo)-3-((4-((5-methyl-1H-pyrazol-3-yl)amino)quinazolin-2-yl)amino)-8-azabicyclo[3.2.1]oct-8-yl)sulfonyl)azetindin-3-formonitrile], for which, in series [1] (plasma, blood), the Cmax worked out at 9.69 ng/mL, the AUC(0-t) worked out at 7.37 ng·h/mL, the MRT turned out to be 2.66 h and the Tmax was 3 h. Also, in series [1] (colon), the Cmax stood at 1750 ng/mL, the AUC(0-t) amounted to 4930 ng·h/mL, the MRT turned out to be 4.92 h and the Tmax was determined as 5 h. Moreover, in series [1] (ileum), the Cmax amounted to 321 ng/mL, the AUC(0-t) came to 1240 ng·h/mL, the MRT was 4.26 h and the Tmax was determined as 5 h. Besides, the IC50 at JAK2 came to 300 pM.
`Cc1cc(Nc2nc(N[C@@H]3C[C@H]4CC[C@@H](C3)N4S(=O)(=O)N3CC(C#N)C3)nc3cc(Cl)ccc23)n[nH]1` [Embodiment 214]: in series [1] (plasma, blood), the Cmax stood at 1.6 ng/mL, the AUC(0-t) came to 3.59 ng·h/mL, the MRT is 1.82 h and the time to peak (Tmax) worked out at 3 h. Further, in series [1] (colon), the Cmax came out at 5590 ng/mL, the AUC(0-t) turned out to be 19500 ng·h/mL, the mean residence time (MRT) amounted to 4.4 h and the Tmax amounted to 5 h. For the same compound, in series [1] (ileum), the Cmax worked out at 24800 ng/mL, the AUC(0-t) stood at 49300 ng·h/mL, the AUC(0-inf) came to 49500 ng·h/mL and the half-life was 0.79 h. In addition, in series [1] (ileum), the MRT is 1.52 h and the Tmax worked out at 1 h. On JAK2, the IC50 came to 820 pM.
Take `Cc1cc(Nc2nc(N[C@@H]3C[C@H]4CC[C@@H](C3)N4S(=O)(=O)N3CC(C#N)C3)nc3sccc23)n[nH]1` [Embodiment 237, 1-(((3-exo)-3-((4-((5-methyl-1H-pyrazol-3-yl)amino)thieno[2,3-d]pyrimidin-2-yl)amino)-8-azabicyclo[3.2.1]oct-8-yl)sulfonyl)azetindin-3-formonitrile]: in series [1] (plasma, blood), the Cmax is 7.12 ng/mL, the AUC(0-t) worked out at 11 ng·h/mL, the MRT was 1.73 h and the Tmax turned out to be 2 h. Further, in series [1] (colon), the Cmax is 2210 ng/mL, the AUC(0-t) was 6460 ng·h/mL, the AUC(0-inf) amounted to 7240 ng·h/mL and the half-life was 1.52 h. For the same compound, in series [1] (colon), the MRT worked out at 3.43 h and the Tmax was found to be 3 h. Also, in series [1] (ileum), the Cmax was determined as 4140 ng/mL, the AUC(0-t) came to 15300 ng·h/mL, the AUC(0-inf) turned out to be 15400 ng·h/mL and the half-life is 0.55 h. In addition, in series [1] (ileum), the MRT came out at 2.43 h and the Tmax was 3 h. The IC50 at JAK2 is 790 pM.
In the case of `Cc1cc(Nc2nc(N[C@@H]3C[C@H]4CCC[C@@H](C3)N4S(=O)(=O)N3CC(C#N)C3)nc3sccc23)n[nH]1` [Embodiment 238], in series [1] (plasma, blood), the Cmax was determined as 12.7 ng/mL, the AUC(0-t) was found to be 19.6 ng·h/mL, the MRT was 1.47 h and the Tmax amounted to 1 h. For the same compound, in series [1] (colon), the Cmax was determined as 1320 ng/mL, the AUC(0-t) amounted to 5270 ng·h/mL, the AUC(0-inf) was 7380 ng·h/mL and the half-life is 2.89 h. Besides, in series [1] (colon), the MRT was 4.16 h and the Tmax was found to be 3 h. Further, in series [1] (ileum), the Cmax came out at 21000 ng/mL, the AUC(0-t) was 36600 ng·h/mL, the AUC(0-inf) was determined as 36600 ng·h/mL and the half-life is 0.58 h. Further, in series [1] (ileum), the MRT worked out at 1.29 h and the Tmax stood at 1 h. The IC50 at JAK2 was 440 pM.
